Test results as given in paper PMC11193023 (The Journal of Biological Chemistry, 2024).

Biological target: T1, BwCuyA (Bilophila wadsworthia, UniProt E5Y343)
T1 sequence (E5Y343 1-333): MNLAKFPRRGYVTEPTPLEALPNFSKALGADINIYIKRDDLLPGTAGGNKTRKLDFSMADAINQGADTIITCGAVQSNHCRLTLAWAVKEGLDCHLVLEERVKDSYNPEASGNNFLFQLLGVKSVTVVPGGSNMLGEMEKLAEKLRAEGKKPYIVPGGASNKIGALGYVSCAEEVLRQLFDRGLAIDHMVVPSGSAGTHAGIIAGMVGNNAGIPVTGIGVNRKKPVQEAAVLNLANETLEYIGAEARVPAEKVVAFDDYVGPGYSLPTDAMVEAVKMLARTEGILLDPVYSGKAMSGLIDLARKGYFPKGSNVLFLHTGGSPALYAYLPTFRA
Test: UV-Vis absorbance spectrum of purified enzyme
Type: binding
Conditions: enzyme as isolated; sub-stoichiometric PLP content

Cc1ncc(COP(=O)(O)O)c(C=O)c1O [PLP]
UV-Vis absorbance spectrum of purified enzyme: UV-Vis absorbance spectrum of BwCuyA exhibited characteristic features of the PLP cofactor
